In patent US11447504B2, “Macrocyclic chlorine substituted indole derivatives” (Bayer Aktiengesellschaft, priority 2017, dated 2022):
Counter-ions that a name gives are not always drawn. Like-named read-outs stand apart in the source and are kept apart here.

Columns and labels:
AMO-1 = test: Antiproliferation assay 7, AMO-1; format: cell-based; conditions: AMO-1 cells, CellTiter-Glo, read-out: Antiproli AMO-1 IC50 median
Summary of the method: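 Anti-proliferative effect is determined from CellTiter-Glo signal after a 72-hour incubation at 37° C, with a time-zero reference plate measured in parallel.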

SUDHL5 [1] = test: Induction of caspase-3/7 activity (Assay 4), SUDHL5; format: cell-based; conditions: SUDHL5 cells
Summary of the method: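 DLBCL cells treated with compounds for 3 hours at 37° C. Caspase-3/7 activity measured by Caspase-Glo 3/7 luminescence, with medium-only background subtracted.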

SUDHL5 [2] = test: Induction of cytotoxicity (Assay 6), SUDHL5
SUDHL10 [3] = test: Induction of cytotoxicity (Assay 6), SUDHL10
SUDHL10 [4] = test: Induction of caspase-3/7 activity (Assay 4), SUDHL10; format: cell-based; conditions: SUDHL10 cells
Summary of the method: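 SUDHL10 DLBCL cells treated with compounds for 3 hours at 37 °C in a humidified incubator. Caspase-3/7 activity read with Caspase-Glo 3/7 luminescent reagent. Medium-only background subtracted from all values.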

[5] = biological target: full length endogenous MCL1 protein (Homo sapiens (Human), UniProt Q07820); test: PIxEL: protein-protein interaction in permeabilized cells by ELISA (Assay 5); format: cell-based; conditions: permeabilized RKO cells, biotin-BIM BH3 peptide, read-out: PIxEL IC50 (median)
full length endogenous MCL1 protein, sequence (Q07820 whole entry): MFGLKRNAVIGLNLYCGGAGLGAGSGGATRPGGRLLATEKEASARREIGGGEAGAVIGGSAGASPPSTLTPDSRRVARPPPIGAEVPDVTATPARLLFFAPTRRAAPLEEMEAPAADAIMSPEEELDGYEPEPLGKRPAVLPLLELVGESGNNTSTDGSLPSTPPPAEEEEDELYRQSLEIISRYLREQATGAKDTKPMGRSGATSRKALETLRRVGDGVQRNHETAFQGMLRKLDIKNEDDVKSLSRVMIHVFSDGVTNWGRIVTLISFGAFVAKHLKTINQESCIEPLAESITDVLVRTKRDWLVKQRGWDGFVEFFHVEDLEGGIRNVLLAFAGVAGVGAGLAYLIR
Description: PIxEL: Protein-Protein Interaction in Permeabilized Cells by ELISA
Most MCL1 protein molecules are localized at the mitochondria outer membrane and sequester pro-apoptotic proteins through binding of their BCL2 homology domain 3 (BH3 domain). MEB buffer (150 mM mannitol, 10 mM HEPES pH 7.5, 50 mM KCl, 20 μM EDTA, 20 μM EGTA, 5 mM potassium succinate, 0.1% protease-free BSA (SIGMA) with low dose digitonin (0.002%) permeabilizes plasma membrane while leaves live mitochondria, where MCL1 maintains its native localization and conformation. Unlike biophysical assays (e.g. TR-FRET) that use truncated recombinant MCL1 protein, this assay uses full length endogenous MCL1 protein at mitochondria outer membrane. It measures the interaction between MCL1 protein and biotinylated BIM BH3 peptide. Compounds can compete with BIM BH3 peptide to bind to MCL1 protein. This serum free assay measures the affinity between MCL1 protein and compound in permeabilized cells, therefore it is not affected by serum binding and cell permeability, and can measure the intrinsic compound affinity.
On day 1, RKO colon cancer cell line cells were plated at 0.8 million cells/ml, 100 μl/well in 96-well flat bottom TC plates (Corning). MCL1 antibody (Santa Cruz sc-12756) were diluted at 200 fold (final concentration 1 μg/ml) in carbonate buffer (Thermo Fisher Scientific, pH 9.6), and 50 μl of diluted antibody was added to each well of high bind ELISA plates ([…]). Each plate was tapped to make sure liquid covering entire bottom of wells and incubate at 37° C. overnight.
On the second day, MCL1 antibody was washed from ELISA plate. 250 μl Odyssey® Blocking Buffer (PBS) (Li-Cor) was added to each well, incubated at room temperature for at least 1 hour, then washed once with 250 μl 1×PBST. Plates with RKO cells were gently washed once with 100 μl/well PBS, once with 100 μl/well MEB buffer without digitonin, then 100 μl of MEB buffer with 0.002% digitonin was gently added to each well. Compounds were added with HP Tecan compound dispenser in 3-fold dilution series, highest dose 30 μM, 10-dose per compound in quadruplicates. Biotin-BIM peptide (synthesized by 21st Century) was added with HP Tecan compound dispenser at 0.2 μM immediately after the addition of compounds. Plates were rocked for 1 h at room temperature. Then MEB buffer was aspirated and 50 μl of CHAPS buffer (50 mM Tris-Cl, pH 7.4, 150 mM NaCl, 1% CHAPS, 1 mM EDTA, 1 mM EGTA, complete protease inhibitors (Roche), PhosSTOP (Roche)) was added to each well. […]
On the third day, ELISA plates were washed once with 250 μl 1×PBST. […] Plates were shaken for 1 minute then luminescence was measured by Envision plate reader (HP). […] IC50 was calculated using Graphic Pad PRISM software.

[6] = 3 hours, Caspase-Glo 3/7, read-out: Caspase SUDHL5 EC50 (median)
[7] = read-out: Cytotox SUDHL5 IC50 (median), SUDHL5 cells, 5 hours, CellTiter-Glo
[8] = read-out: Cytotox SUDHL10 IC50 (median), SUDHL10 cells, 5 hours, CellTiter-Glo
[9] = 3 hours, Caspase-Glo 3/7, read-out: Caspase SUDHL10 EC50 (median)

| EC50 (SUDHL5 [1]; Homo sapiens, SU-DHL-5, 3 h, Caspase-Glo 3/7, read-out: Caspase SUDHL5 EC50 (median)) | EC50 (SUDHL10 [4]; Homo sapiens, SU-DHL10, 3 h, Caspase-Glo 3/7, read-out: Caspase SUDHL10 EC50 (median)) | IC50 ([5]; printed in uM) | EC50 (SUDHL5 [1]; [6]) | EC50 (SUDHL10 [4]; [9]) | IC50 [5] | SMILES | IC50 (AMO-1; Homo sapiens, AMO1, 72 h) | IC50 (SUDHL5 [2]; Homo sapiens, SU-DHL-5, 5 h, read-out: Cytotox SUDHL5 IC50 (median), SUDHL5 cells, 5 hours, CellTiter-Glo) | IC50 (SUDHL10 [3]; Homo sapiens, SU-DHL10, 5 h, read-out: Cytotox SUDHL10 IC50 (median), SUDHL10 cells, 5 hours, CellTiter-Glo) | IC50 (AMO-1; 72 hours) | IC50 (SUDHL5 [2]; [7]) | IC50 (SUDHL10 [3]; [8]) |
| --- | --- | --- | --- | --- | --- | --- | --- | --- | --- | --- | --- | --- |
| 690 nM | 1800 nM | > 30 µM |  |  |  | Cc1c2c(nn1C)N(C)CCCCCn1c(C(=O)O)c(CCCOc3cccc4ccccc34)c3ccc(Cl)c-2c31 (racemic) [Example 71, (rac)-4-chloro-2,3,15-trimethyl-7-{3-[(naphthalen-1-yl)oxy]propyl}-10,11,12,13,14,15-hexahydro-2H-pyrazolo[4′,3′:4,5][1,6]diazacycloundecino[3,2,1-hi]indole-8-carboxylic acid] | 5000 nM | 690 nM | 2700 nM |  |  |  |
|  |  |  | 710 nM | 1000 nM | 0.214 µM | Cc1c2c(nn1C)N(C)CCCCCn1c(C(=O)O)c(CCCOc3cccc4cc(F)ccc34)c3ccc(Cl)c-2c31 (racemic) [Example 74, (rac)-4-chloro-7-{3-[(6-fluoronaphthalen-1-yl)oxy]propyl}-2,3,15-trimethyl-10,11,12,13,14,15-hexahydro-2H-pyrazolo[4′,3′:4,5][1,6]diazacycloundecino[3,2,1-hi]indole-8-carboxylic acid] |  |  |  | 1100 nM | 1000 nM | 1300 nM |
|  |  |  | 400 nM | 320 nM | 0.037 µM | CCc1c2c(nn1C)N(C)CCCCCn1c(C(=O)O)c(CCCOc3cccc4cc(F)ccc34)c3ccc(Cl)c-2c31 (single isomer, unassigned; enantiomer 1) [Example 78, 4-chloro-3-ethyl-7-{3-[(6-fluoronaphthalen-1-yl)oxy]propyl}-2,15-dimethyl-10,11,12,13,14,15-hexahydro-2H-pyrazolo[4′,3′:4,5][1,6]diazacycloundecino[3,2,1-hi]indole-8-carboxylic acid-N-ethylethanamine Salt—Enantiomer 1] |  |  |  | 770 nM | 310 nM | 700 nM |
|  |  |  | 330 nM | 740 nM | 0.146 µM | Cc1c2c(nn1C)N(C)CCCCCn1c(C(=O)O)c(CCCOc3cccc4cc(F)ccc34)c3ccc(Cl)c-2c31 [Example 75, (+)-4-chloro-7-{3-[(6-fluoronaphthalen-1-yl)oxy]propyl}-2,3,15-trimethyl-10,11,12,13,14,15-hexahydro-2H-pyrazolo[4′,3′:4,5][1,6]diazacycloundecino[3,2,1-hi]indole-8-carboxylic acid-N-ethylethanamine salt] |  |  |  | 1100 nM | 380 nM | 810 nM |
